In patent EP0038046A2, “Pharmaceutical amides, and preparation, formulations and use thereof” (THE WELLCOME FOUNDATION LIMITED, priority 1980, dated 1981):
Blank lines part the entries; values can stand above or below the molecule they belong to.

Tests used:
enkephalinase Al = target: T1, enkephalinase Al (Rattus norvegicus, UniProt P07861); assay: Enkephalinase-inhibiting activity, method A (purified enkephalinase A1, 3H-leucine enkephalin hydrolysis to 3H-TGG, TLC separation); format: biochemical, Rats; conditions: leucine enkephalin 5 x 10^-5M, 30°C, IC50 determined graphically, read-out: Approx IC50
T1 construct: the solubilised enzymes contained in the supernatant separated by DEAE- cellulose column chromatography; Enkephalinase Al was further purified by Sephacryl S.300 chromatography; from tissue; host or cells: rat striatum (Triton X-100 solubilised membrane pellet, DEAE-cellulose and Sephacryl S.300 chromatography)
T1 sequence (P07861 1-750): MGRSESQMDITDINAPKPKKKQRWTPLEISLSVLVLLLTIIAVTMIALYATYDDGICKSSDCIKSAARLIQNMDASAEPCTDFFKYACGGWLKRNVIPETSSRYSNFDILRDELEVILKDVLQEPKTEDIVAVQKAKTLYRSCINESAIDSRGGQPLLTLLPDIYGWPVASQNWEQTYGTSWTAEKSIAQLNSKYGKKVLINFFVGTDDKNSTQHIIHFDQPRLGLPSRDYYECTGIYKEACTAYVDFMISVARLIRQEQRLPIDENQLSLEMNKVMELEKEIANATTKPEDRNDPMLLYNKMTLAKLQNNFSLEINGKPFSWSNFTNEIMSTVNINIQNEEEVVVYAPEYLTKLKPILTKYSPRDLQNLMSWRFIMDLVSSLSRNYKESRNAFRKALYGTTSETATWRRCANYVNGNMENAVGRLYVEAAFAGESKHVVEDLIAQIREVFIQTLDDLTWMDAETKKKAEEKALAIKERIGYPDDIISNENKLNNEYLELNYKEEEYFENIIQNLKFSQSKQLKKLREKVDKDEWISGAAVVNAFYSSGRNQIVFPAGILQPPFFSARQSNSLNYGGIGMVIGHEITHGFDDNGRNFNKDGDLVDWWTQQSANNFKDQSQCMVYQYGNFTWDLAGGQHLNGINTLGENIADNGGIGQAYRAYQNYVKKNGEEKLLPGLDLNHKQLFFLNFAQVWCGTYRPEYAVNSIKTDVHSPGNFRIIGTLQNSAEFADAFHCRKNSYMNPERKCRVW

mice = assay: Antinociceptive activity, acetic acid writhing assay (modified Siegmund et al.); format: in vivo
Protocol: The antinociceptive activity of compound 1 was tested in vivo in mice using the following method:-
A modification of the writhing assay of Siegmund et al (Proc. Soc. exp. Biol. Med., 1957, 95: 727-731) was used. Compound 1 dissolved in saline, or saline alone, was administered intracerebroventricularly (i.c.v.) to groups of 5 mice at the doses shown below.-1 hour or 2 hours later, the mice were injected i.p. with the nonciceptive stimulus, i.e. 0.6% (v/v) aqueous acetic acid. […] An antinociceptive compound will reduce the number of writhes and this may be expressed as a percentage inhibition: [formula]

enkephalinase = target: T2, enkephalinase (Rattus norvegicus, UniProt P07861); assay: Enkephalinase-inhibiting activity, method B (striatal membrane homogenate, 3H-leucine enkephalin hydrolysis to 3H-TGG); format: biochemical, rats; conditions: method B (figures marked with an asterisk), 3H-leucine enkephalin 3 x 10^-8M, 22°C, only approximate due to catabolism of 3H-TGG by aminopeptidase(s), read-out: Approx IC50
T2 construct: from tissue; host or cells: rat striatum, crude washed membrane pellet (47,000 g)
T2 sequence (P07861 1-750): T1 sequence (P07861 1-750)
Protocol: B) The following method is-a modification of the method of Malfroy et al; Nature Vol..276, 30 November 1978 pages 523 to 526. Three rats were killed by decapitation and the striata dissected out on ice. The pooled tissues were homogenised in ice-cold Tris/hydrochloric acid buffer (50 mM, pH 7.60, 10.0 ml) and centrifuged (1000 g, 10 mins). The resulting supernatant was recentrifuged (47,000 g, 20 mins) and the second supernatant discarded. The pellet was washed twice and finally resuspended in buffer as before (9.6 ml) and aliquots (1.9 ml) of this suspension incubated at 22°C. […] At the completion of incubation N hydrochloric acid (50 μl) was added, the mixture heated in a boiling water bath for 15 mins and precipitated material then removed by centrifugation (1500 g, 10 mins). Separation of • (a) unchanged ^3H-leucine enkephalin, • ([…]-OH (^3H-TGG), generated from (a) by enkephalinase, and • (c) ^3H-Tyr-OH, generated from both (a) and (b) by aminopeptidase(s) in the supernatant and the subsequent procedure was carried out as described in method A) above.

IC50 (enkephalinase Al): 17 µM
Molecule: CC(C)C[C@H](NC(=O)C(CC(=O)O)Cc1ccccc1)C(=O)O (mixture of isomers) [compound 1, (2S)-2-[(2RS)-2-Benzyl-3-carboxypropanamido]-4-methylpentanoic acid]
% inhibition of writhes (mice; 5 µg mouse i.c.v., 1h prior to acetic acid): slight potentiation | % inhibition of writhes (mice; 5 µg mouse i.c.v., 2h prior to acetic acid): 36% | % inhibition of writhes (mice; 10 µg mouse i.c.v., 1h prior to acetic acid): 28% | % inhibition of writhes (mice; 10 µg mouse i.c.v., 2h prior to acetic acid): 48% | % inhibition of writhes (mice; 20 µg mouse i.c.v., 1h prior to acetic acid): 32% | % inhibition of writhes (mice; 20 µg mouse i.c.v., 2h prior to acetic acid): 44% | % inhibition of writhes (mice; 40 µg mouse i.c.v., 1h prior to acetic acid): 75% | % inhibition of writhes (mice; 40 µg mouse i.c.v., 2h prior to acetic acid): 84%

IC50 (enkephalinase Al): 0.33 µM
Molecule: CC(C)C[C@H](NC(=O)C(CS)Cc1ccccc1)C(N)=O (mixture of isomers) [compound 9, (2S)-2-[(2RS)-2-Benzyl-3-mercaptopropanamido]-4-methylpentanamide]

IC50 (enkephalinase Al): 19 µM
Molecule: CSCC[C@@H](NC(=O)C(CC(=O)O)Cc1ccccc1)C(=O)O (mixture of isomers) [compound 12, (2R)-2-[(2RS)-2-Benzyl-3-carboxypropanamido]-4-(methylthio)butanoic acid]

IC50 (enkephalinase Al): 4.3 µM
Molecule: CSCC[C@H](NC(=O)C(CC(=O)O)Cc1ccccc1)C(=O)O (mixture of isomers) [compound 13, (2S)-2-[(2RS)-2-Benzyl-3-carboxypropanamido]-4-(methylthio)butanoic acid]

IC50 (enkephalinase Al): 3000 µM
Molecule: C[C@H](CS)C(=O)N1CCC[C@H]1C(=O)O [Captopril, 1-(D-3-mercapto-2-methylpropanoyl)-L-proline (R,S), reference compound]

IC50 (enkephalinase): 7.2 µM
Molecule: CC(C)C[C@H](NC(=O)[C@@H](CC(=O)O)Cc1ccccc1)C(=O)O [compound 2, (2S)-2-[(2R)-2-benzyl-3-carboxypropanamido]-4-methylpentanoic acid]

IC50 (enkephalinase): 4 µM
Molecule: CC(C)C[C@H](NC(=O)[C@H](CC(=O)O)Cc1ccccc1)C(=O)O [compound 3, (2S)-2-[(2S)-2-benzyl-3-carboxypropanamido]-4-methylpentanoic acid]

IC50 (enkephalinase Al): > 100 µM
Molecule: CC(C)C[C@H](NC(=O)[C@@H](CC(=O)O)Cc1ccccc1)C(N)=O [compound 4, (2S)-2-[(2R)-2-Eenzyl-3-carboxypropanamido]-4-methylpentanamide]

IC50 (enkephalinase Al): > 500 µM
Molecule: CC(C)C[C@@H](NC(=O)C(CC(=O)O)Cc1ccccc1)C(=O)O (stereo partly drawn) [compound 11, (2R)-2-[(2RS)-2-Benzyl-3-carboxypropanamido,]-4-methylpentanoic acid]

IC50 (enkephalinase Al): 65 µM
Molecule: CC(C)C[C@H](NC(=O)C(CC(=O)O)Cc1ccc([N+](=O)[O-])cc1)C(=O)O (stereo partly drawn) [compound 14]

IC50 (enkephalinase Al): 0.15 µM
Molecule: CSCC[C@@H](NC(=O)C(CS)Cc1ccccc1)C(=O)O (stereo partly drawn) [compound 15, (2R)-2-[2RS-2-Benzyl-3-mercaptopropanamido]-4-(methylthio)-butanoic acid]

IC50 (enkephalinase): > 100 µM
Molecule: (2$)-2-[(2R)-2-Benzyl-3-carboxypropanamido]-4-methylpentanamide [compound 10]

Molecule: (2S)-2-[(2RS)-3-Acetylthio-2-benzylpropanamido]-4-methylpentanoic acid, dicyclohexylamine salt [compound 6]
IC50 (enkephalinase Al): 11 µM
